We go through one compound from publication PMC9133015 (Nature Communications, 2022).

Common to all, as to experiment: Kinase inhibitor specificity profiling (Reaction Biology Corporation)
Type in all cases: biochemical
Common to all, as to parameters: % Enzyme Activity (relative to DMSO controls): concentration or dose not given beside the values

The target of assay [1] is T1, panel of 370 protein kinases (Homo sapiens, UniProt P37023).
T1 construct: purchased Reaction Biology Corporation (assay service)
To be noted: 2 h, kinase ALK1/ACVRL1; read-out: % Enzyme Activity (relative to DMSO controls).

The target in assay [2] is T2, panel of 370 protein kinases (Homo sapiens, UniProt Q8N5S9).
T2 construct: purchased Reaction Biology Corporation (assay service)
To be noted: 2 h, kinase CAMKK1; read-out: % Enzyme Activity (relative to DMSO controls).

Assay [3] concerns the target T3, panel of 370 protein kinases (Homo sapiens, UniProt P14616).
T3 construct: purchased Reaction Biology Corporation (assay service)
As to conditions: 2 h, kinase IRR/INSRR; read-out: % Enzyme Activity (relative to DMSO controls).

In assay [4] the target is T4, panel of 370 protein kinases (Homo sapiens, UniProt O43318).
T4 construct: purchased Reaction Biology Corporation (assay service)
To be noted: 2 h, kinase TAK1; read-out: % Enzyme Activity (relative to DMSO controls).

For assay [5], the target named is T5, panel of 370 protein kinases (Homo sapiens, UniProt P22694).
T5 construct: purchased Reaction Biology Corporation (assay service)
As to conditions: 2 h, kinase PKAcb; read-out: % Enzyme Activity (relative to DMSO controls).

Assay [6] deals with T6, panel of 370 protein kinases (Homo sapiens, UniProt Q86V86).
T6 construct: purchased Reaction Biology Corporation (assay service)
As to conditions: 2 h, kinase PIM3; read-out: % Enzyme Activity (relative to DMSO controls).

For assay [7], the target named is T7, panel of 370 protein kinases (Homo sapiens, UniProt Q96RR4).
T7 construct: purchased Reaction Biology Corporation (assay service)
As to conditions: 2 h, kinase CAMKK2; read-out: % Enzyme Activity (relative to DMSO controls).

For assay [8], the target named is T8, panel of 370 protein kinases (Homo sapiens, UniProt P50750).
T8 construct: purchased Reaction Biology Corporation (assay service)
To be noted: 2 h, read-out: % Enzyme Activity (relative to DMSO controls).

Assay [9] deals with T9, panel of 370 protein kinases (Homo sapiens, UniProt P17612).
T9 construct: purchased Reaction Biology Corporation (assay service)
To be noted: 2 h, kinase PKA; read-out: % Enzyme Activity (relative to DMSO controls).

Assay [10] concerns the target T10, panel of 370 protein kinases (Homo sapiens, UniProt Q15303).
T10 construct: purchased Reaction Biology Corporation (assay service)
As to conditions: 2 h, kinase ERBB4/HER4; read-out: % Enzyme Activity (relative to DMSO controls).

Assay [11] has as its target T11, panel of 370 protein kinases (Homo sapiens, UniProt P45985).
T11 construct: purchased Reaction Biology Corporation (assay service)
To be noted: 2 h, kinase MKK4; read-out: % Enzyme Activity (relative to DMSO controls).

The target in assay [12] is T12, panel of 370 protein kinases (Homo sapiens, UniProt P29597).
T12 construct: purchased Reaction Biology Corporation (assay service)
As to conditions: kinase TYK2.

The target in assay [13] is T13, panel of 370 protein kinases (Homo sapiens, UniProt Q9UBS0).
T13 construct: purchased Reaction Biology Corporation (assay service)
To be noted: 2 h, kinase p70S6Kb/RPS6KB2; read-out: % Enzyme Activity (relative to DMSO controls).

For assay [14], the target named is T14, panel of 370 protein kinases (Homo sapiens, UniProt P53779).
T14 construct: purchased Reaction Biology Corporation (assay service)
To be noted: kinase JNK3.

The target in assay [15] is T15, panel of 370 protein kinases (Homo sapiens, UniProt O14965).
T15 construct: purchased Reaction Biology Corporation (assay service)
To be noted: 2 h, kinase Aurora A; read-out: % Enzyme Activity (relative to DMSO controls).

Assay [16] addresses T16, panel of 370 protein kinases (Homo sapiens, UniProt Q8N752).
T16 construct: purchased Reaction Biology Corporation (assay service)
To be noted: 2 h, kinase CK1a1L; read-out: % Enzyme Activity (relative to DMSO controls).

In assay [17] the target is T17, panel of 370 protein kinases (Homo sapiens, UniProt Q8IW41).
T17 construct: purchased Reaction Biology Corporation (assay service)
As to conditions: 2 h, kinase MAPKAPK5/PRAK; read-out: % Enzyme Activity (relative to DMSO controls).

Assay [18] deals with T18, panel of 370 protein kinases (Homo sapiens, UniProt Q9Y572).
T18 construct: purchased Reaction Biology Corporation (assay service)
To be noted: 2 h, kinase RIPK3; read-out: % Enzyme Activity (relative to DMSO controls).

The target of assay [19] is T19, panel of 370 protein kinases (Homo sapiens, UniProt P35626).
T19 construct: purchased Reaction Biology Corporation (assay service)
As to conditions: 2 h, kinase GRK3; read-out: % Enzyme Activity (relative to DMSO controls).

For assay [20], the target named is T20, panel of 370 protein kinases (Homo sapiens, UniProt O15111).
T20 construct: purchased Reaction Biology Corporation (assay service)
To be noted: 2 h, kinase IKKa/CHUK; read-out: % Enzyme Activity (relative to DMSO controls).

For assay [21], the target named is T21, panel of 370 protein kinases (Homo sapiens, UniProt Q96GD4).
T21 construct: purchased Reaction Biology Corporation (assay service)
To be noted: 2 h, kinase AURORA B; read-out: % Enzyme Activity (relative to DMSO controls).

Several values for one entry are separate records, joined by “and”; a condition that tells them apart may be missing. Equal values may be shown once. Read-outs that look alike come from different tables or passages of the source.

T8 sequence (P50750 whole entry): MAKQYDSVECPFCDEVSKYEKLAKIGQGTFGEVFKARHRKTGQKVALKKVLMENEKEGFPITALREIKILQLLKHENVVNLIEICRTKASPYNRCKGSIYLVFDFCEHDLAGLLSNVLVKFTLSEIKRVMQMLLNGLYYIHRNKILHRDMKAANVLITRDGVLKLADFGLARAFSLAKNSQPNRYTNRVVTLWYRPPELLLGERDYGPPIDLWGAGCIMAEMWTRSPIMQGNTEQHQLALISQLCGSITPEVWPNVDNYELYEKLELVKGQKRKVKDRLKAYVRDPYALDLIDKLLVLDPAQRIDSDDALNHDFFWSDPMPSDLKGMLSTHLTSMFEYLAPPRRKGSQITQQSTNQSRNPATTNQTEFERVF
T12 sequence (P29597 whole entry): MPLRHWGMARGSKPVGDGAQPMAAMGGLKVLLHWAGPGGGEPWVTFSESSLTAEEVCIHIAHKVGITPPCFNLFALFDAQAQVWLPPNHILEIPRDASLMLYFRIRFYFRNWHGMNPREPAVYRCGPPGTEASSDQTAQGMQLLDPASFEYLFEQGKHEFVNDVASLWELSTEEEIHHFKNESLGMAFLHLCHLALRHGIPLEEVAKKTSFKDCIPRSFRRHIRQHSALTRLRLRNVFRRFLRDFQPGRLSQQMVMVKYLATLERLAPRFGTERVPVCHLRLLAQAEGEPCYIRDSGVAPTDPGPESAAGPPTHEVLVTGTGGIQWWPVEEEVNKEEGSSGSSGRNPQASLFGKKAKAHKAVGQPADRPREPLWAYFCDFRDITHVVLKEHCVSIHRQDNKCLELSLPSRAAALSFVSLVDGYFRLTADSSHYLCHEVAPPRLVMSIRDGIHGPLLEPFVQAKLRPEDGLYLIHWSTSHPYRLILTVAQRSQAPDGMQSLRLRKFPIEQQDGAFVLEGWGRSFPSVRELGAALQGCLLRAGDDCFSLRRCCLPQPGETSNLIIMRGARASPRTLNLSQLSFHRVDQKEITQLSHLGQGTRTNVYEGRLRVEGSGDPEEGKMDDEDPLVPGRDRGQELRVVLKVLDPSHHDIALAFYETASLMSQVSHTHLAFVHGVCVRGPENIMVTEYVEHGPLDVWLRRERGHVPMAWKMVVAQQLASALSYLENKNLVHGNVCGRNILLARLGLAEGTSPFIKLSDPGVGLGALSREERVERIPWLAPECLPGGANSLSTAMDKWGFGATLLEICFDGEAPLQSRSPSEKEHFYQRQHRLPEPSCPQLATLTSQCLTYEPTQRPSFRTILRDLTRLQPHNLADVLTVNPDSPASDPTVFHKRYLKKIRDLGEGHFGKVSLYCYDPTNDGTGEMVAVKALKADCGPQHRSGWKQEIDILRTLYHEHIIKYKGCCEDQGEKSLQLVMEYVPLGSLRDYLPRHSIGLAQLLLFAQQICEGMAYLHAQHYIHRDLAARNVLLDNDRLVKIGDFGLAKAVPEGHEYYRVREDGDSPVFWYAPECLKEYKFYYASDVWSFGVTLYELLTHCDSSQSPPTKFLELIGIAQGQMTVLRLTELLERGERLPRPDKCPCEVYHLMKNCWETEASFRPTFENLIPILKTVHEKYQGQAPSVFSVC
T14 sequence (P53779 whole entry): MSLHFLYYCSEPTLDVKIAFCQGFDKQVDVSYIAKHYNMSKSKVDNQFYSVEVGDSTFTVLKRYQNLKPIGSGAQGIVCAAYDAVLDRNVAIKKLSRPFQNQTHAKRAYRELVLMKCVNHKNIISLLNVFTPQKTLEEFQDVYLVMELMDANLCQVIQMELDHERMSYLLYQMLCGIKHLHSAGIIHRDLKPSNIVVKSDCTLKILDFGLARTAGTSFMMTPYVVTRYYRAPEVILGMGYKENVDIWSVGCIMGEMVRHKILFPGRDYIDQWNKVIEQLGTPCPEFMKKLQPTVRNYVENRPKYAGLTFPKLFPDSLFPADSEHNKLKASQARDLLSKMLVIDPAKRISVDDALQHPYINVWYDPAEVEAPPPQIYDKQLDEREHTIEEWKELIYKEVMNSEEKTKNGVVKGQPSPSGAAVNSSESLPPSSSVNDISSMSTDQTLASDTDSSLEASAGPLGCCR
T21 sequence (Q96GD4 whole entry): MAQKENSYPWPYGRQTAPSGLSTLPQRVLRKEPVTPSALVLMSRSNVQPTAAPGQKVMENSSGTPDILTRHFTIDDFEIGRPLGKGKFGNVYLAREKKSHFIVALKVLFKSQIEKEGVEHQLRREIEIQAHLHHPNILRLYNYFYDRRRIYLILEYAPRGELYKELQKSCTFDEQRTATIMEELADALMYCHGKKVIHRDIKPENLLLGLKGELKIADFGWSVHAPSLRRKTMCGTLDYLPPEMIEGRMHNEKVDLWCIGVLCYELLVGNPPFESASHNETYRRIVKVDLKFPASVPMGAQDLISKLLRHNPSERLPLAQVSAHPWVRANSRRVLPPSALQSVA
T17 sequence (Q8IW41 whole entry): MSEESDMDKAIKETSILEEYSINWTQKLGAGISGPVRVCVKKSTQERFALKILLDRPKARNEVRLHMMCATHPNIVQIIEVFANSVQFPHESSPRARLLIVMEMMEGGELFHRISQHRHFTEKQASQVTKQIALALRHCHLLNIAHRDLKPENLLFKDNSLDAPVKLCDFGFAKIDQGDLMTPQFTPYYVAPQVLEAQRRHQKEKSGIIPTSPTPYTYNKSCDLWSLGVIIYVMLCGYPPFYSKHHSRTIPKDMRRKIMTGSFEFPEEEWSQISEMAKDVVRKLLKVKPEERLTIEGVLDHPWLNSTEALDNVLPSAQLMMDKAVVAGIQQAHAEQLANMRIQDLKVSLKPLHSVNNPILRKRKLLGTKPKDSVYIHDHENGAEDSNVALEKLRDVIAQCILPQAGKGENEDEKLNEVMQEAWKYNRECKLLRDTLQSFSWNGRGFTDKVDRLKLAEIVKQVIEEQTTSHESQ
T18 sequence (Q9Y572 whole entry): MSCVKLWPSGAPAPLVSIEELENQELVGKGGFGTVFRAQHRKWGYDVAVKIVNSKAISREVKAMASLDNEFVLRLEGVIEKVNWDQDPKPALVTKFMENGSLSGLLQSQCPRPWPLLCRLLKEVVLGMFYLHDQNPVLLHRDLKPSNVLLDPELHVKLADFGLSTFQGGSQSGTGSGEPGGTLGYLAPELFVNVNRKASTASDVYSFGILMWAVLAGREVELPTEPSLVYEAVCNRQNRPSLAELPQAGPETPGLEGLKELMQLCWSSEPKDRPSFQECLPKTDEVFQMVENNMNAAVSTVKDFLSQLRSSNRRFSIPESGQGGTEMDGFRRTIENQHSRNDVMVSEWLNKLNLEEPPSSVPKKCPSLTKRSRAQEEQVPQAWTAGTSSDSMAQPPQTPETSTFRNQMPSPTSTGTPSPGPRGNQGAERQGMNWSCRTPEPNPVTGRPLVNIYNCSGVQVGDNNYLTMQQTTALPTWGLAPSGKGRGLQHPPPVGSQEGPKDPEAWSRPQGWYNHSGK
T2 sequence (Q8N5S9 whole entry): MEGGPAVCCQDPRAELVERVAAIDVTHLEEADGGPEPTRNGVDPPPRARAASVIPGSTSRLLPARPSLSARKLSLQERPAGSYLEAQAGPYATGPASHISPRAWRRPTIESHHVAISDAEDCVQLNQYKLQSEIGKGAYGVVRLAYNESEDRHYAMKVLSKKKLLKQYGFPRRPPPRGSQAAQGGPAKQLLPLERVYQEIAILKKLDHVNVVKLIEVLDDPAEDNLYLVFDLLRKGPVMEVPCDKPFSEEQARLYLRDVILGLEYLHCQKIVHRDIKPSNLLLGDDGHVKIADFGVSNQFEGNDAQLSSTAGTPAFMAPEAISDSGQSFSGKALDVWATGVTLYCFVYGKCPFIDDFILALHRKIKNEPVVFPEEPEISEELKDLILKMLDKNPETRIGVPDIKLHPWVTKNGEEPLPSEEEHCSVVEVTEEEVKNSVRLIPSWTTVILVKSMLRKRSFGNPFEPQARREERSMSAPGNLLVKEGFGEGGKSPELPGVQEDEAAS
T19 sequence (P35626 whole entry): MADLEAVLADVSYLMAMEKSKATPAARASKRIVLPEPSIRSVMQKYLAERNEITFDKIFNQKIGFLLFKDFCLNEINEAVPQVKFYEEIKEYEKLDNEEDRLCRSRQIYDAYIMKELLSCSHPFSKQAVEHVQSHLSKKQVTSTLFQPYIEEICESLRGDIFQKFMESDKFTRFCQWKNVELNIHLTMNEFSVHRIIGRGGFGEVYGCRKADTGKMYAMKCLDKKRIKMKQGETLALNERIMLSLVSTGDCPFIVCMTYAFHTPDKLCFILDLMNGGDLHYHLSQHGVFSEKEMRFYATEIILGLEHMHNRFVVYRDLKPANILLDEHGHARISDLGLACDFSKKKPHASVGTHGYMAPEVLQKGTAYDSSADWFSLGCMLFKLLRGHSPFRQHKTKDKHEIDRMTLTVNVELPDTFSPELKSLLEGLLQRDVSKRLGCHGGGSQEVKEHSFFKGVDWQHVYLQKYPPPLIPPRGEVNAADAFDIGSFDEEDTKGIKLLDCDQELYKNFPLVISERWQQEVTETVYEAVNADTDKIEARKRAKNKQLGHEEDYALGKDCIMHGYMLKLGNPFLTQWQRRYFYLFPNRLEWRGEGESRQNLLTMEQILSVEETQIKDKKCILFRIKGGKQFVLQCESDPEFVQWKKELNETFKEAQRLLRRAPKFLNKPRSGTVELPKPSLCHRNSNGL
T16 sequence (Q8N752 whole entry): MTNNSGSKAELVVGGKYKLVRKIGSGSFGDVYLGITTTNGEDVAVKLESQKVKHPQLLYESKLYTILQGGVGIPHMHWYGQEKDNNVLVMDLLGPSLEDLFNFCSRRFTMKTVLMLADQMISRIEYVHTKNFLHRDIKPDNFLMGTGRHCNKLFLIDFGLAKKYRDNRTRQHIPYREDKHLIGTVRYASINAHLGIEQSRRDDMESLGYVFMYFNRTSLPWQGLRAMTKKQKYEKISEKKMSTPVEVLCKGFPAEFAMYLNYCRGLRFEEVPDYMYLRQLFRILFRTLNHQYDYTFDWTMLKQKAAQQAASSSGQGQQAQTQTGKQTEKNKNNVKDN

`CCN1CCN(C(=O)c2ccc(Nc3ncc(F)c(-c4ccc5nc(N(C)C)sc5c4)n3)nc2)CC1` [YK-2-69]: the remaining activity at 1 µM in [1] was 106%; in assay [2], 95.7%; in assay [3], 91.8%; in [4], 103%; in [5], 99.7%; in [6] it was 55.8%. Also, the remaining activity at 1 µM is 94.6% in assay [7]; 96.3% in assay [8] (kinase CDK9/CYCLIN K); 90.8% in [8] (kinase CDK9/cyclin T1); 96.8% in assay [8] (kinase CDK9/cyclin T2); 98.7% in assay [9]; 88.5% in assay [10]. Also, the remaining activity at 1 µM in [11] was found to be 87.2%; in assay [13], 99.4%; in assay [15], 80.6%; in assay [16], 103%; in assay [17], 98.5%; in assay [18], 102%. Further, the remaining activity at 1 µM in assay [19] stood at 108%; in [20], 77.1%; in [21], 94.5%. In addition, the “% Enzyme Activity (relative to DMSO controls)” value was 89.12% and 88.94% in assay [12]; 84.96% and 83.74% in assay [14].
